Literature values, collected in US20260069593A1, “METHODS FOR TREATING CANCER” (AMGEN INC., priority 2022, published 2026).

System: extracellular signal-regulated kinase (ERK)
Settings: preclinical studies

For C=CC(=O)N1CCN(c2nc(=O)n(-c3c(C)ccnc3C(C)C)c3nc(-c4c(O)cccc4F)c(F)cc23)[C@@H](C)C1 (atropisomer, axis not shown; (M)) [sotorasib, 6-fluoro-7-(2-fluoro-6-hydroxyphenyl)-(1M)-1-[4-methyl-2-(propan-2-yl)pyridin-3-yl]-4-[(2S)-2-methyl-4-(prop-2-enoyl)piperazin-1-yl]pyrido[2,3-d]pyrimidin-2(1H)-one], the “phosphorylation of extracellular signal-regulated kinase (ERK)” value is given as “inhibited nearly all detectable phosphorylation of extracellular signal-regulated kinase (ERK)”.
